Test results: patent US5925667A, “Pyrrolidine derivative, anti-ulcer drug, and antibacterial drug” (Shiseido Co., Ltd., priority 1997, dated 1999)

Tests used:
[1] = MTT: Cell Damaging and Protecting Effect Test; format: cell-based, male Japanese White rabbit; settings: rabbit, gastric mucosa cells, final concentration 10^-4 M, smaller value is better, read-out: cell damaging rate (MTT)
Excerpt: MTT: Cell Damaging and Protecting Effect Test
It is confirmed that there is no toxicity in cell level. Those having a toxicity in cell level are inappropriate as an anti-ulcer drug.
A male Japanese White rabbit (2.5 to 3 kg) was anesthetized to death by Nembutal™ and, immediately thereafter, its stomach was removed. The greater curvature of the stomach was incised so as to remove the stomach contents therefrom. After the mucosal surface was washed with HBSS (Hanks' Balanced Salt Solution), the stomach in ice-cooled HBSS was transferred to a laboratory. Then, after the pyloric antrum was removed, the gastric corpus mucosa was separated by a spatula and then minced into 2 to 3 mm^3 pieces in BME (Basal Medium Eagle). Thereafer, these pieces were shaken at 120 to 130 cycles/minute for 15 minutes at 37° C. in BME 60 ml containing 280 U/ml of dispase and 30 to 50 U/ml of collagenase. Here, the concentration of collagenase was appropriately changed for each lot in view of the state of cells. The pieces were washed twice with EBSS (Earle's Balanced Salt Solution) containing 1 mM of EDTA and then shaken in MEM (Minimum Essential Medium) containing 1 mM of EDTA at 37° C. for 5 minutes. Subsequently, they were shaken in the dispase and collagenase having the same concentrations as those mentioned above for 15 minutes so as to remove the supernatant and then further shaken at 37° C. for 50 to 60 minutes at 120 to 130 cycles/minute. Then, after being washed twice with HBSS, Ham F12 containing 2% of Ultrocer G™ was used to attain the concentration of 1×10^6 cells/ml. Thus formed suspension was dispensed in each well of a 96-well plate by 200 μl. The plate was incubated in the atmosphere composed of 5% CO2 and 95% air at 37° C. for three days so as to attain a confluent state and then subjected to MTT assay.
The sample compound was dissolved in DMSO so as to attain a concentration of 10^-2 M and then diluted with HBSS containing 2% of Ultrocer G™ so as to attain a final concentration of 10^-4 M. To each group, which 8 wells were used for, 10 μl of MTT reagent was added immediately after 100 μl of the medium in each well was exchanged for same volume of the resulting solution of the sample compound. After being incubated in an atmosphere composed of 5% CO2 and 95% air at 37° C. for 4 hours, thus formed solution was centrifuged and then its supernatant was discarded. Subsequently, 100 μl of 100% ethanol was added to the residue so as to dissolve MTT formazan. Then, the absorbance (OD: 570 to 630) was measured by a microplate reader. This method utilizes a phenomenon in which MTT is changed to MTT formazan only by mitochondria of living cells so as to change color.
The cell damaging or cell protecting effect of the sample compound at the final concentration of 10^-4 M was expressed as cell damaging rate (%) as follows:
cell damaging rate (%)=(1-(absorbance in sample group/absorbance in control group))×100
Accordingly, the smaller value is better in the cell damaging rate.

stress ulcer = assay: WIS: Restraint and Water Immersion Stress-Induced Ulcer Inhibition Test; format: in vivo, male Crj:SD or Slc:SD rats; settings: rat; for inhibition in vivo at 100 mg/kg: 100 mg/kg oral, 7 h water immersion stress, read-out: ulcer formation inhibitory rate (WIS)
Protocol: WIS: Restraint and Water Immersion Stress-Induced Ulcer Inhibition Test
The degree of inhibition of the stress ulcer formation is tested.
Male Crj:SD or Slc:SD rats (6 to 7-week-old) were fasted overnight, but allowed free access to water. Each group has 5 to 8 of these rats. The sample compound was dissolved or suspended in an aqueous solution of 0.3% sodium carboxymethylcellulose or 0.05% Tween 80 and then was orally administered (100 mg/10 ml/kg. To a control group, the vehicle was administered. 10 minutes later, the rats were placed in a stress cage and immersed to the level of xipfoid process in a water bath (21° C.) for 7 hours. At the end of the stress, the rats were sacrificed by inhalation of ether or carbon dioxide. Then, the stomach of each was removed, inflated by injecting 10 ml of 5% formalin neutral buffer solution, and immersed in 1% formalin neutral buffer solution for 30 minutes or more to be fixed. The stomach was incised along the greater curvature and then the length of each erosion in the glandular portion was determined under dissecting microscope. The sum of the length of erosions per stomach was defined as ulcer index (UI).
The effect obtained when 100 mg/kg of the sample compound had been administered was expressed as ulcer formation inhibitory rate (%) as follows:
ulcer formation inhibitory rate (%)=(1-(UI in sample group/UI in control group))×100

[2] = tested on: isolated gastric fundic gland; assay: CAP: Acid Secretion Inhibition Test In Vitro ([14C]-aminopyrine uptake test); format: cell-based, male Japanese White rabbit; settings: Oryctolagus cuniculus; final concentration 10^-5 M, histamine 10^-5 M; read-out: acid secretion inhibitory rate (CAP)
Protocol: CAP: Acid Secretion Inhibition Test In Vitro
The acid secretion inhibitory activity in a cell level is studied. It can also be used for studying the mechanism of the effect.
ii-a) Preparation of isolated gastric fundus gland suspension
First, an isolated gastric fundic gland sample was prepared. Namely, a male Japanese White rabbit (2.5 to 3 kg) was anesthetized to death with Nembutal™ and then the abdomen was incised. Immediately thereafter, the stomach was removed and, after its pyloric and cardiac antrum were severed, incised along its greater curvature into two sheets. The gastric contents adhering to the mucosal surface was washed out with ice-cooled PBS (-) and then carefully washed therein. The gastric wall was spread on a cork board with its mucosal surface facing up and the feed and mucus thereon were completely removed with sterile gauze. The mucosa was separated therefrom by a spatula and then collected in ice-cooled PBS (-). After being washed twice with PBS (-), the mucosa was minced into 2-3 mm^3 pieces by scissors. These pieces were further washed twice with a nutrient solution. The nutrient solution comprises 132.4 mM of NaCl, 5.4 mM of KCl, 5 mM of Na2 HPO4.12H2 O, 1 mM of NaH2 PO4.2H2,
1.2 mM of MgSO4, 1 mM of CaCl2, 25 mM of HEPES, 2 mg/ml of glucose, and 1 mg/ml of BSA.
Into 70 ml of the nutrient solution containing 1 mg/ml of collagenase, minced mucosal pieces were dispersed and intensely stirred in a conical flask with a stirrer at 37° C. for 40 to 60 minutes. During this period, 100% O2 was sprayed on the nutrient solution surface and the pH was appropriately measured such that it was immediately adjusted to pH 7.4, when the value was therebelow, with a base. The nutrient solution was added to the reaction solution so as to attain the total amount of about 200 ml. After being filtered through a mesh, the suspension was divisionally introduced into 50 ml centrifuge tubes and left for 15 minutes such that gastric fundic gland was deposited. The supernatant was repeatedly removed by an aspirator, dispersed in the nutrient solution, and then left such that the gastric fundic gland was washed three times. At this time, without using a pipette, the suspension was alternately introduced into two centrifuge tubes so as to effect dispersion. The number of cells was counted under microscope and adjusted to 1.6×10^6 cells/ml.
ii-b) [^14 C]-aminopyrine uptake test.
Then, [^14 C]-aminopyrine uptake test was performed. After an Eppendorf tube was weighed, 10 μl (final concentration: 10^-5 M) of histamine dissolved in the above-mentioned nutrient solution, 10 μl (final concentration: 10^-5 M) of the test compound dissolved in DMSO, and 10 μl (final concentration: 0.05 μCi/ml) of [^14 C]-aminopyrine diluted with the nutrient solution were introduced therein and then 970 μl of the isolated gastric fundic gland suspension prepared above was added thereto. Subsequently, this mixture was shaken at 37° C. for 40 minutes at 125 cycles/minute. After being centrifuged for 30 seconds, 200 μl of its supernatant was collected into a mini-vial, while the rest was removed by an aspirator. The gland pellet was completely dried as the tube with its lid being opened was kept for one night in a drying oven at 80° C. and then the lid was closed and the weight was determined at room temperature. Then 100 μl of 1N KOH was added thereto and the tube with its lid being closed was treated at 60° C. for 1 to 2 hours so as to dissolve the pellet. Then, the contents thereof were transferred to a mini-vial. Into the mini-vial containing the supernatant or gland pellet, 4 ml of Atomlite™ was added and then the radioactivity was measured by a liquid scintillation counter. Here, after the radioactivity of the gland pellet was corrected by using a sample in which 20 mM of NaSCN was added so as to cancel the hydrogen ion concentration gradient, the integration ratio of aminopyrine specifically trapped by the gland pellet was calculated. […]

CCN1CCCC1CNC(=O)c1ccc(OCC=C(C)C)nc1 (centres unmarked) [Example 26, 1-ethyl-2-(6-prenyloxynicotinoylaminomethyl)pyrrolidine]
cytotoxicity at 4 h, 100 µM [1]: -8%
inhibition in vivo at 100 mg/kg (stress ulcer): 48%

CCN1CCCC1CNC(=O)c1ccc(OCC=C(C)C)cc1 (centres unmarked) [Example 3, 1-ethyl-2-(4-prenyloxybenzoylaminomethyl)pyrrolidine]
cytotoxicity at 4 h, 100 µM [1]: -14%
inhibition in vivo at 100 mg/kg (stress ulcer): 86%
inhibition at 10 µM [2]: 61%

CCN1CCCC1CNC(=O)c1ccccc1OC/C=C(\C)CCC=C(C)C (centres unmarked) [Example 2, 1-ethyl-2-(2-geranyloxybenzoylaminomethyl)pyrrolidine]
cytotoxicity at 4 h, 100 µM [1]: 19%
inhibition in vivo at 100 mg/kg (stress ulcer): 85%
inhibition at 10 µM [2]: 99.7%

CCN1CCCC1CNC(=O)c1cc(OC)c(OCC=C(C)C)c(OC)c1 (centres unmarked) [Example 24, 1-ethyl-2-(3,5-dimethoxy-4-prenyloxybenzoylaminomethyl)pyrrolidine]
cytotoxicity at 4 h, 100 µM [1]: 12%
inhibition in vivo at 100 mg/kg (stress ulcer): 79%

CCN1CCCC1CNC(=O)c1cc(F)ccc1OC/C=C(\C)CCC=C(C)C (centres unmarked) [Example 20, 1-ethyl-2-(3-fluoro-6-geranyloxybenzoylaminomethyl)pyrrolidine]
cytotoxicity at 4 h, 100 µM [1]: 23%
inhibition in vivo at 100 mg/kg (stress ulcer): 89%

CCN1CCCC1CNC(=O)c1ccc(OC)cc1OC/C=C(\C)CCC=C(C)C (centres unmarked) [Example 18, 1-ethyl-2-(2-geranyloxy-4-methoxybenzoylaminomethyl)pyrrolidine]
cytotoxicity at 4 h, 100 µM [1]: 4%
inhibition in vivo at 100 mg/kg (stress ulcer): 76%

CCN1CCCC1CNC(=O)c1ccc(OC/C=C(\C)CCC=C(C)C)nc1 (centres unmarked) [Example 27, 1-ethyl-2-(6-gearnyloxynicotinoylaminomethyl)pyrrolidine]
inhibition in vivo at 100 mg/kg (stress ulcer): 88%
inhibition at 10 µM [2]: 81%

CCN1CCCC1CNC(=O)c1ccc(OC)c(OC/C=C(\C)CCC=C(C)C)c1 (centres unmarked) [Example 15, 1-ethyl-2-(3-geranyloxy-4-methoxybenzoylaminomethyl)pyrrolidine]
cytotoxicity at 4 h, 100 µM [1]: 2%
inhibition in vivo at 100 mg/kg (stress ulcer): 91%

CCN1CCCC1CNC(=O)c1cc(OC)ccc1OC/C=C(\C)CCC=C(C)C (centres unmarked) [Example 19, 1-ethyl-2-(2-geranyloxy-5-methoxybenzoylaminomethyl)pyrrolidine]
cytotoxicity at 4 h, 100 µM [1]: 21%
inhibition in vivo at 100 mg/kg (stress ulcer): 89%

CCN1CCCC1CNC(=O)c1cc(OC)c(OC)c(OC/C=C(\C)CCC=C(C)C)c1 (centres unmarked) [Example 22, 1-ethyl-2-(3,4-dimethoxy-5-geranyloxybenzoylaminomethyl)pyrrolidine]
inhibition in vivo at 100 mg/kg (stress ulcer): 80%

CCN1CCCC1CNC(=O)c1cc(OC/C=C(\C)CCC=C(C)C)cc(OC/C=C(\C)CCC=C(C)C)c1 (centres unmarked) [Example 12, 1-ethyl-2-(3,5-digeranyloxybenzoylaminomethyl)pyrrolidine]
cytotoxicity at 4 h, 100 µM [1]: 29%
inhibition in vivo at 100 mg/kg (stress ulcer): 82%
inhibition at 10 µM [2]: 100%

CCN1CCCC1CNC(=O)c1ccc(OC/C=C(\C)CCC=C(C)C)c(OC/C=C(\C)CCC=C(C)C)c1 (centres unmarked) [Example 11, 1-ethyl-2-(3,4-digeranyloxybenzoylaminomethyl)pyrrolidine]
inhibition in vivo at 100 mg/kg (stress ulcer): 75%

CCN1CCCC1CNC(=O)c1ccccc1SC/C=C(\C)CCC=C(C)C (centres unmarked) [Example 14, 1-ethyl-2-(2-geranylthiobenzoylaminomethyl)pyrrolidine]
cytotoxicity at 4 h, 100 µM [1]: 27%
inhibition in vivo at 100 mg/kg (stress ulcer): 81%
anti-ulcer effect (in words) (stress ulcer; in vivo): the effect has been maintained
inhibition at 10 µM [2]: 98.1%

CCN1CCCC1CNC(=O)c1ccc(OC/C=C(\C)CCC=C(C)C)cc1OC/C=C(\C)CCC=C(C)C (centres unmarked) [Example 9, 1-ethyl-2-(2,4-digeranyloxybenzoylaminomethyl)pyrrolidine]
inhibition in vivo at 100 mg/kg (stress ulcer): 66%

CCN1CCCC1CNC(=O)c1cc(OCC=C(C)C)c(OCC=C(C)C)c(OCC=C(C)C)c1 (centres unmarked) [Example 13, 1-ethyl-2-(3,4,5-triprenyloxybenzoylaminomethyl)pyrrolidine]
inhibition in vivo at 100 mg/kg (stress ulcer): 57%

CCN1CCCC1CNC(=O)c1cccnc1OCC=C(C)C (centres unmarked) [Example 25, 1-ethyl-2-(2-prenyloxynicotinoylaminomethyl)pyrrolidine]
cytotoxicity at 4 h, 100 µM [1]: -15%
inhibition in vivo at 100 mg/kg (stress ulcer): 90%

CCN1CCCC1CNC(=O)c1ccc(OC/C=C(\C)CCC=C(C)C)cc1 (centres unmarked) [Example 1, 1-ethyl-2-(4-geranyloxybenzoylaminomethyl)pyrrolidine]
inhibition in vivo at 100 mg/kg (stress ulcer): 80%

CCN1CCCC1CNC(=O)c1cc(OC)c(OC/C=C(\C)CCC=C(C)C)c(OC)c1 (centres unmarked) [Example 21, 1-ethyl-2-(3,5-dimethoxy-4-geranyloxybenzoylaminomethyl)pyrrolidine]
inhibition in vivo at 100 mg/kg (stress ulcer): 76%
